Source: ChEMBL document CHEMBL1146644, “High-throughput identification of fucosyltransferase inhibitors using carbohydrate microarrays” (Bioorg Med Chem Lett, 2004)

Columns and labels:
[1] = target: T1, 4-galactosyl-N-acetylglucosaminide 3-alpha-L-fucosyltransferase FUT6 (Homo sapiens, UniProt P51993); assay: Compound was tested for binding affinity against Fucosyltransferase 6
T1 sequence (P51993 whole entry): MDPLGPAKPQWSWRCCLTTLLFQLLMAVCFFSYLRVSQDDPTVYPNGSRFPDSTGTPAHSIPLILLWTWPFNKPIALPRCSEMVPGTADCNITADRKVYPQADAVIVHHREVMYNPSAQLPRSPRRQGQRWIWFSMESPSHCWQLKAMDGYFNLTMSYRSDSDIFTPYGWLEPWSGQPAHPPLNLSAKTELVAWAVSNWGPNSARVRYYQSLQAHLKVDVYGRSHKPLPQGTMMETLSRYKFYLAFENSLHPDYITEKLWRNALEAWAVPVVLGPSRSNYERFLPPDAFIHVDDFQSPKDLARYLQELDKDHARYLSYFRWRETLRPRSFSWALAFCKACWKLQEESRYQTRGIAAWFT

[2] = target: T1, 4-galactosyl-N-acetylglucosaminide 3-alpha-L-fucosyltransferase FUT6; assay: Inhibitory concentration required against Fucosyltransferase 6

SMILES	Ki [1] [nM]	IC50 [2] [nM]
Nc1nc2c(ncn2C2O[C@H](COP(=O)(O)OP(=O)(O)OCc3cn(CCCC(=O)NC(Cc4ccccc4)c4ccccc4)nn3)[C@@H](O)[C@H]2O)c(=O)[nH]1 (stereo not given in full)	1070	3960
Nc1nc(O)c2ncn(C3O[C@H](COP(=O)(O)OP(=O)(O)OCc4cn(CCCCC(=O)NC5=CC6C(=O)c7ccccc7C(=O)C6C=C5)nn4)[C@@H](O)[C@H]3O)c2n1 (stereo not given in full)	511	1890
Nc1nc(O)c2ncn(C3O[C@H](COP(=O)(O)OP(=O)(O)OCc4cn(CC(=O)NC(Cc5ccccc5)c5ccccc5)nn4)[C@@H](O)[C@H]3O)c2n1 (stereo not given in full)	437	1620

Second part, the compound after the results:

Ki [1] [nM]	IC50 [2] [nM]	SMILES
376	1390	Nc1nc(O)c2ncn(C3O[C@H](COP(=O)(O)OP(=O)(O)OCc4cn(CCCCC(=O)NC(Cc5ccccc5)c5ccccc5)nn4)[C@@H](O)[C@H]3O)c2n1 (stereo not given in full)
901	3340	Nc1nc2c(ncn2C2O[C@H](COP(=O)(O)OP(=O)(O)OCc3cn(CCC(=O)NCc4cccc5ccccc45)nn3)[C@@H](O)[C@H]2O)c(=O)[nH]1 (stereo not given in full)
